From patent US12576051B2, “Methods and composition for treating respiratory obstructive diseases” (The Regents of the University of California, priority 2019, dated 2026)
Entries after “also recorded” stand apart in the source; their conditions may differ.

Legend:
[1] = system: porcine gastric mucin extract (50 kDa band matched to Muc5ac mucin); experiment: Mucolytic activity on gastric mucin (electrophoresis, Coomassie stain); format: biochemical; conditions: for 50 kDa protein band of gastric mucin extract: 37° C., 60 minutes, versus untreated extract, hydrochloride
Protocol: FIG. 7 presents the effects of cysteamine bitartrate and compound 646 on porcine gastric mucin extract. One hundred microliters of gastric mucin extract (5 mg/mL) was incubated with and without cysteamine bitartrate and compound 646 separately, at 37° C. for 60 minutes.
Gastric Mucin extract solution: Mucin was prepared as stock solution of 5 mg/mL in water, in NaCl Ringer (150 mM Na^+, 4.6 mM K^+, 1 mM Ca^2+, 1 mM Mg^2+, 150 mM Cl^−, 2.5 mM PO4^x− and 10 mM glucose) pH 7.2, and in HCO3-Ringer solution (150 mM Na^+, 4.6 mM K^+, 1 mM Ca^2+, 1 mM Mg^2+, […] HCO3^−, 2.5 mM PO4^x− and 10 mM glucose) pH 8.
(§1) Mucolytic activity on gastric mucin. One hundred microliters of mucin solution were incubated with Cysteamine bitartrate or compound 646 at final concentrations from 0 to 2 mM as indicated in the text. Mixture was incubated at 37° C. for 0-1 hr. Mucolytic activity was ended with 30 microliters of SDS-sample buffer solution. Forty-five microliters of each sample/well were separated in an electrophoresis gel 4-12% Tris-Glycine. After electrophoresis gels were stained with Coomassie Blue solution.
In vitro mucolytic activity of cysteamine bitartrate and compound 646. To evaluate the mucolytic activity of cysteamine bitartrate and 2-aminoethane-1-d-1-thiol hydrochloride (Compound 646), gastric mucin extract was used as a substrate that was treated with 200 and 400 μM of cysteamine bitartrate or Compound 646 respectively.
Mass spectrometry analysis of the isolated 50 kDa protein band. Muc5ac and Muc6 mucins are two major secretory mucins found in the stomach. In order identify which of these mucins were part of the 50 kDa band, mass spectrometry was utilized. Mass spectrometry analysis of the 50 kDa protein band identified 17 unique peptides that matched with porcine Muc5ac mucin.

[2] = system: respiratory secreted mucus; experiment: Mucolytic activity on respiratory secreted mucus of open porcine trachea sections (alcian blue); conditions: 2 mM, HCO3-Ringer with PGE2 (1 uM) and alcian blue (0.02%), 10 minutes at 37° C.; untreated showed clusters of secreted mucus; hydrochloride
Protocol: (§2) FIG. 16 provides the mucolytic activity of compounds 646 and 647 on respiratory secreted mucus. Small sections of open porcine trachea (˜2 cm^2) were covered with HCO3-Ringer solution ([…]) containing PGE2 (1 uM) and alcian blue (0.02%), with or without compounds at a 2 mM final concentration, and then incubated for 10 minutes at 37° C.
as §2, with “17” for “16”, “655” for “646”, “656” for “647”

[3] = system: porcine airway; experiment: Ex vivo porcine airway models (summary statement)
Source text: Abnormal mucus accumulation in airways has deleterious, and fatal consequence in patients suffering from respiratory obstructive diseases, such as cystic fibrosis (CF), COPD and asthma. Therefore, there is a need for therapies aimed at decreasing mucus accumulation to facilitate airway mucus clearance.

[4] = system: secreted Muc5ac mucin; experiment: Mucolytic activity on secreted Muc5ac mucin of open porcine trachea sections (western blot); conditions: 2 mM, HCO3-Ringer with PGE2 (1 uM), 10 minutes at 37° C.; FIG. 18
Protocol: FIG. 18 provides the mucolytic activity of compounds on secreted Muc5ac mucin. Epithelial luminal surface of open porcine trachea sections (˜2 cm^2) were covered with HCO3-Ringer solution ([…]) containing PGE2 (1 uM), and alcian blue (0.02%), with or without compounds at a 2 mM final concentration, and incubated for 10 minutes at 37° C. Equal volumes of each collected sample were separated on vertical electrophoresis, and then transfer to an immobilon-P membrane for western blot analysis. […] Densitometric signal of the untreated sample, as control, was normalized to 100% (% arbitrary units).
Epithelial luminal surface of open porcine trachea sections (˜2 cm^2) were covered with […] of HCO3-Ringer solution containing PGE2 (1 uM), in the presence or absence of compounds at a 2 mM final concentration, and incubated for 5 minutes at 37° C. Afterwards, […] of sterile 7% NaCl inhaled solution was added and incubated for another 5 mins at 37° C. Equal volumes of each collected sample were separated on vertical electrophoresis, and then transferred to an immobilon-P membrane for western blot analysis. […] Densitometric signal of the non-treated sample, as control, was normalized to 100% (% arbitrary units).

[5] = system: porcine airway mucus; experiment: Mucolytic activity on porcine airway mucin (electrophoresis, Coomassie stain); format: biochemical; conditions: for protein bands at 600 and 200 kDa of airway mucus: NaHCO3-Ringer, 60 minutes at 37° C., hydrochloride
Protocol: FIG. 9 presents the effect of compound 646 on porcine airway mucus. Mucus collected from porcine upper airways diluted in NaHCO3-Ringer, was treated with different concentrations of compound 646 (0, 0.25. 0.5 and 1 mM), for 60 minutes at 37° C. In lane 1, representative protein pattern after electrophoresis protein separation of untreated porcine airway mucus (40 μg/well).
Airway mucus supernatant diluted in NaHCO3-Ringer was treated with or without cysteamine bitartrate under basic and acidic conditions at 37° C. for 60 minutes.
Biological specimens: Isolated native porcine airways were used as experimental model. Sections of open trachea tissue (approx. 2 cm^2) were carefully rinsed and cover small volume of NaHCO3-Ringer solution. Mucus secretion was stimulated with Prostaglandin E2 (PGE2, 10−6 M). Secreted mucus over the dissected open airways was carefully collected, aliquoted and immediately frozen at −80° C.
as §1, with “porcine airway mucin:” for “gastric mucin.”, “collected porcine airway supernatant was” for “mucin solution were”, “text.” for “text. Mixture was incubated at 37° C. for 0-1 hr.”, “45” for “Forty-five”
Mucolytic activity of synthetic compound 646. Respiratory airway mucus contained Muc5aC and Muc5B mucins. In order to determine whether compound 646 be used as a mucolytic agent for respiratory airways, supernatant of mucus collected from porcine airways was treated with compound 646 at different concentration (0-1 mM) for 1 h at 37° C.
Mucolytic activity of cysteamine bitartrate under basic and acidic conditions. To validate whether mucolytic activity of cysteamine bitartrate depends on changes of pH, airway mucus supernatant was incubated for 1 h at 37° C. with or without 2 mM cysteamine bitartrate diluted in NaHCO3. An additional airway mucus sample was treated with cysteamine bitartrate and supplemented with 4 μL of 0.1 N of acetic solution pH 4.5. […] The reduction, however, was approximately half of the decrease seen under acidic conditions.

2-aminoethane-1-d-1-thiol hydrochloride [Compound 646]
50 kDa protein band of gastric mucin extract ([1]; 200 μM): decrease in the 50 kDa protein band
50 kDa protein band of gastric mucin extract ([1]; 400 μM): decrease in the 50 kDa protein band
anti-mucin effect against gastric mucin, Muc5ac in particular ([1]; summary of FIG. 7 and FIG. 8): anti-mucin effect against gastric mucin
appearance of secreted mucus on trachea sections [2]: dispersed clusters of secreted mucus
accumulation of viscous mucus and mucociliary clearance [3]: prevented accumulation of viscous mucus and improves mucociliary clearance
native Muc5ac levels on epithelial luminal surfaces (immunoblot) [4]: decreased native Muc5ac levels
protein bands at 600 and 200 kDa of airway mucus ([5]; 0.5 mM): two major changes in the proteins at the level of 600 and 200 kDa; also recorded: major changes on two protein bands
protein bands at 600 and 200 kDa of airway mucus ([5]; 1 mM): two major changes in the proteins at the level of 600 and 200 kDa; also recorded: major changes on two protein bands
mucolytic effect on airway mucus ([5]; mucus collected from porcine airways, summary of FIG. 9): mucolytic effect, similar to cysteamine
